This is an account of results in the NIST ThermoML archive (doi:10.1021/acs.jced.8b00785).

± gives the expanded uncertainty stated by the source.

The conditions of series [1]: Crystal; DSC.
Series [2] is described as follows: Molar enthalpy of transition or fusion. The conditions noted are these: Crystal; DSC.

Take `NNC(=O)c1ccncc1` [isonicotinic acid hydrazide]: the Triple point temperature in series [1] was determined as 446.04 ± 0.87 K. Also, the “Molar enthalpy of transition or fusion” value in series [2] is 6.72 ± 0.359 kcal/mol.
